Experiment [1] has as its system MDA-MB-231 (breast cancer) cell line. In words: Cell growth inhibition experiment (SRB), MDA-MB-231. It is filed as cell-based, human. As to conditions: Homo sapiens, MDA-MB-231, 96 h, 96 hours incubation. As for the experimental part:
(§1) The cell lines below were used in order to confirm the efficacy of the compounds synthesized in Examples 1 to 60. Human PANC-1 (pancreatic cancer) and MDA-MB-231 (breast cancer) cell lines were obtained from the American Type Culture Collection (ATCC; Manassas, Va.); and HN31 (head and neck cancer) and UMRC2 (kidney cancer) cell lines were secured from the United States National Institutes of Health (Bethesda, Md.). The MDA-MB-231, UMRC2, HN31, and PANC-1 cell lines were cultured in Dulbecco modified Eagle medium (DMEM; Invitrogen, Carlsbad, Calif.) containing FBS (10%), HEPES (10 mM), penicillin (100 U/mL), and streptomycin (100 μg/mL). All cell lines were cultured in an incubator (37° C., 5% CO2).
(§2) The 4-(aryl)-N-(3-alkoxyfuro[2,3-b]pyrazin-2-yl)-piperazine-1-carboxamide derivative compounds synthesized according to Examples 1 to 60 of the present invention were treated with various human tissue-derived cancer cell lines cultured according to Experimental Example 1, and thus the inhibitory effect of the growth of human cancer cells was confirmed. The cell growth inhibition experiment was conducted using the sulforhodamine B (SRB) technique (Skehan et al., J. National Cancer Institute, 1990, 82: 1107-1112). Specifically, each cell line was seeded in a 96-well plate at a density of 2 to 3×10^3 cells/well, cultured overnight, and then treated with the 4-(aryl)-N-(3-alkoxyfuro[2,3-b]pyrazin-2-yl)-piperazine-1-carboxamide derivative compounds of the present invention. The experiment was repeated 3 times for each compound. Cells treated with each compound were additionally incubated for 96 hours, fixed with 10% trichloroacetic acid (TCA), and then left at 4° C. for 1 hour. The resultant was washed 3 times with distilled water. Thereafter, each cell was treated with 0.4% sulforhodamine B dissolved in 1% acetic acid, stained for 30 minutes, and then washed 4 times with 1% acetic acid. The resultant was dried in the air. After shaking the resultant in Tris solution (10 mM) for 5 minutes, the absorbance was measured at 530 nm using a Benchmark Plus Microplate reader (Bio-Rad Laboratories, Hercules, Calif.).
(§3) In order to convert the OD530 value to the number of viable cells per each well, the measured OD530 value was compared to the standard OD530-vs.-cell number curve of each cell line. The percent survival was calculated using the following formula: % survival=Nlive cells(test)/Nlive cells(control)×100

Experiment [2] relates to PANC-1 (pancreatic cancer) cell line. In words: Cell growth inhibition experiment (SRB), PANC-1. The format is cell-based. The conditions noted are these: Homo sapiens, PANC-1, 96 h, 96 hours incubation. As for the experimental part: as §1, §2, §3
Experiment [3] relates to SK-OV-3. In words: Cell growth inhibition experiment (SRB), SK-OV-3. The format is cell-based, human. The conditions noted are these: Homo sapiens, SK-OV-3, 96 h, 96 hours incubation, read-out: IC50 (μM) for cancer cell line SK-OV-3. As for the experimental part: as §2, §3
In experiment [4] the test system is HN31 (head and neck cancer) cell line. Description: Cell growth inhibition experiment (SRB), HN31. The format is cell-based, human. As to conditions: Homo sapiens, 96 h, 96 hours incubation. How it is done: as §1, §2, §3
The test system of experiment [5] is UMRC2 (kidney cancer) cell line. In words: Cell growth inhibition experiment (SRB), UMRC2. The format is cell-based, human. As to conditions: Homo sapiens, UMRC2, 96 h, 96 hours incubation. As for the experimental part:
as §1, §2, §3

The test system of experiment [6] is A549. In words: Cell growth inhibition experiment (SRB), A549. The format is cell-based. As to conditions: Homo sapiens, A549, 96 h, 96 hours incubation, read-out: IC50 (μM) for cancer cell line A549. As for the experimental part:
as §2, §3

In experiment [7] the test system is HUVEC. Description: Cell growth inhibition experiment (SRB), HUVEC. As to conditions: Homo sapiens, HUVEC, 96 h, 96 hours incubation, read-out: IC50 (μM) […]. The format is cell-based, human. As for the experimental part: as §2, §3
Experiment [8] concerns HEK293. In words: Cell growth inhibition experiment (SRB), HEK293. It is filed as cell-based, human. As to conditions: Homo sapiens, HEK293, 96 h, 96 hours incubation, read-out: IC50 (μM) for cancer cell line HEK293. As for the experimental part:
as §2, §3

For experiment [9], the system named is HT29. In words: Cell growth inhibition experiment (SRB), HT29. As to conditions: Homo sapiens, HT-29, 96 h, 96 hours incubation, read-out: IC50 (μM) for cancer cell line HT29. It is filed as cell-based, human. How it is done:
as §2, §3

With `CCOc1nc2occc2nc1NC(=O)N1CCN(c2cc(C(F)(F)F)cc(C(F)(F)F)c2)CC1` [Example 19, 4-(3,5-Bis(trifluoromethyl)phenyl)-N-(3-ethoxyfuro[2,3-b]pyrazin-2-yl)piperazine-1-carboxamide], the 50% inhibitory concentration (IC50) in experiment [1] was 0.34 µM; in experiment [2], 1.23 µM; in [3], less than 2.5 µM; in experiment [4] it was 0.36 µM; in [5] it was 0.68 µM; in experiment [6], 0.44 µM. Moreover, the results for the concentration for half-maximal inhibition (IC50) in experiment [7], in experiment [8] and in experiment [9] were 0.68 µM, 1.23 µM and 0.71 µM, respectively.
`COc1nc2oc(Cl)cc2nc1NC(=O)N1CCN(c2cc(F)cc(F)c2)CC1` [Example 47, N-(6-Chloro-3-methoxyfuro[2,3-b]pyrazin-2-yl)-4-(3,5-difluorophenyl)piperazine-1-carboxamide]: the IC50 is 0.43 µM in [1]; 0.41 µM in experiment [2]; 1.93 µM in experiment [3]; 0.68 µM in [4]; 0.68 µM in [5]; 0.57 µM in [6]. Also, the IC50 was found to be 1.87 µM in [7], 0.63 µM in [8] and 1.92 µM in [9].
Take `COc1nc2occc2nc1NC(=O)N1CCN(c2cc(C(F)(F)F)cc(C(F)(F)F)c2)CC1` [Example 9, 4-(3,5-Bis(trifluoromethyl)phenyl)-N-(3-methoxyfuro[2,3-b]pyrazin-2-yl)piperazine-1-carboxamide]: the IC50 in experiment [1], in experiment [2], in experiment [3], in experiment [4], in experiment [5] and in experiment [6] was less than 2.5 µM throughout. For the same compound, the IC50 in experiment [7], in [8] and in [9] was less than 2.5 µM each time.
Turning to `CCOc1nc2oc(C)cc2nc1NC(=O)N1CCN(c2cc(F)cc(OC)c2)CC1` [Example 33, N-(3-Ethoxy-6-methylfuro[2,3-b]pyrazin-2-yl)-4-(3-fluoro-5-methoxyphenyl)piperazine-1-carboxamide], the IC50 in [1] is 0.15 µM; in experiment [2], 0.24 µM; in experiment [3], less than 2.5 µM; in experiment [4], 0.31 µM; in experiment [5], 0.21 µM; in [6] it was 0.41 µM. The concentration for half-maximal inhibition (IC50) was less than 2.5 µM in experiment [7], 0.51 µM in [8] and less than 2.5 µM in [9].
`CCOc1nc2occc2nc1NC(=O)N1CCN(c2cccc(OC(F)(F)F)c2)CC1` [Example 20, N-(3-Ethoxyfuro[2,3-b]pyrazin-2-yl)-4-(3-(trifluoromethoxy)phenyl)piperazine-1-carboxamide]: the concentration for half-maximal inhibition (IC50) was found to be 0.25 µM in experiment [1]; 0.36 µM in [2]; 0.22 µM in experiment [3]; 0.36 µM in experiment [4]; 1.63 µM in experiment [5]; 0.24 µM in [6]. The results for the 50% inhibitory concentration (IC50) in [7], in experiment [8] and in [9] were 0.21 µM, 0.12 µM and 0.62 µM, respectively.
Regarding `COc1cc(OCCN(C)C)cc(N2CCN(C(=O)Nc3nc4cc(C)oc4nc3OC)CC2)c1` [Example 24, 4-(3-(2-(Dimethylamino)ethoxy)-5-methoxyphenyl)-N-(3-methoxy-6-methylfuro[2,3-b]pyrazin-2-yl)piperazine-1-carboxamide], the IC50 in [1] is 0.12 µM; in [2] it was 0.44 µM; in [3], 0.12 µM; in experiment [4] it was less than 2.5 µM; in experiment [5], 0.36 µM; in experiment [6], 0.87 µM. Further, the IC50 is less than 2.5 µM in [7], 0.25 µM in [8] and 0.36 µM in experiment [9].

The IC50 is the concentration at which inhibition is half-maximal.

For the origin of these results see patent US10800788B2, “4-(aryl)-N-(3-alkoxyfuro[2,3-b]pyrazin-2-yl)-piperazine-1-carboxamide derivative and antiproliferative effect thereof” (Dongguk University Industry-Academic Cooperation Foundation, priority 2016, dated 2020).
